Where two headings read alike, the source gives them in different places. Each block holds one compound with its values, some of them ahead of it.
Key:
[1] = Multiple-dose pharmacokinetics of 1 mg NA/10 mcg EE tablets in 18 postmenopausal women; type: in vivo, human; conditions: for Tmax / Cmax / AUC(0-t) / half-life: female, human; for AUC(0-t): read-out: AUC(0-24); for half-life: read-out: t½ (converted)
[2] = Absorption and bioavailability after oral administration of femhrt ⅕ / NA/EE tablets; type: in vivo; conditions: for bioavailability: human, after oral dosing, first-pass metabolism, read-out: absolute bioavailability
Method: The term “effective dose” means the amount of a progestin and an estrogen required to delay the onset or treat symptoms manifested by skin aging or acne in a particular patient. […] Norethindrone acetate and EE are rapidly absorbed from femhrt ⅕ tablets, with maximum plasma concentrations of norethindrone and EE generally occurring 1 to 2 hours postdose. […] For example, a method for preventing and treating acne in a patient in need of treatment comprising administering an effective amount of Estrostep which contains 1 mg NA and a gradually increasing dose of ethinyl estradiol; 20 mcg×5 days, 30 mcg×7 days, and 35 mcg×9 days in a pharmaceutically acceptable carrier. Other dosage forms may be administered.
Norethindrone acetate and EE are rapidly absorbed from femhrt ⅕ tablets, with maximum plasma concentrations of norethindrone and EE generally occurring 1 to 2 hours postdose. […] The extent of norethindrone absorption is increased by 27% following administration of NA/EE tablets with food.

[3] = Population pharmacokinetic analysis of NA/EE tablets; conditions: for average steady-state concentrations (Css): femhrt ⅕ (1 mg NA/5 mcg EE), estimated from population pharmacokinetic analysis
Method: However, the multiple-dose pharmacokinetics were studied at a dose of 1 mg NA/10 mcg EE in 18 postmenopausal women.

[4] = Distribution: volume of distribution; conditions: human, in vivo
From the text: (§1) Volume of distribution of norethindrone and EE ranges from 2 to 4 L/kg. Plasma protein binding of both steroids is extensive (>95%); norethindrone binds to both albumin and SHBG, whereas EE binds only to albumin.

Plasma protein binding = type: in vitro ADME; conditions: human
From the text: as §1

[5] = plasma, oral, Single-Dose (Day 1), 1 mg NA/10 mcg EE tablets, Mean (SD)
[6] = plasma, oral, Steady-State (Day 87), 1 mg NA/10 mcg EE tablets, Mean (SD)

- Tmax ([1]; in vivo, Tmax): 2.2 h
- bioavailability ([2]; in vivo): ~55%
- effect of high fat meal on absorption ([2]; in vivo): decreases rate but not extent
- average steady-state concentrations (Css) [3]: 0.0114 ng/mL
- dose proportionality of mean steady-state plasma concentrations ([3]; in vivo): proportional to dose
- dose proportionality of steady-state concentrations ([3]; in vivo): less than proportional increase
- effect of age on pharmacokinetics ([3]; in vivo): not affected by age
- Vd [4]: 2 to 4 L/kg
- fraction unbound (Plasma protein binding): < 0.05
Compound: C#C[C@]1(O)CC[C@H]2C3CCc4cc(O)ccc4[C@H]3CCC21C (stereo partly drawn) [Ethinyl Estradiol]

- deacetylation to norethindrone ([2]; in vivo, po): completely and rapidly deacetylated
- effect of age on pharmacokinetics ([3]; in vivo): not affected by age
Compound: C#C[C@]1(OC(C)=O)CC[C@H]2C3CCC4=CC(=O)CCC4[C@H]3CCC21C (stereo partly drawn) [NA, (17-alpha)-17-(acetyloxy)-19-norpregna-4-en-20-yn-3-one]

- CL/F ([1]; Single-Dose (Day 1), 1 mg NA/10 mcg EE tablets, Mean (SD)): 588 (416) mL/min
- CL/F ([1]; Steady-State (Day 87), 1 mg NA/10 mcg EE tablets, Mean (SD)): 226 (139) mL/min
- Cmax [1, 5]: 6 ng/mL
- AUC(0-t) [1, 5]: 29.7 ng·h/mL
- Tmax ([1]; plasma, oral, Single-Dose (Day 1), 1 mg NA/10 mcg EE tablets, Mean (SD), read-out: Tmax): 1.8 h
- half-life [1, 5]: 10.3 h
- Cmax [1, 6]: 10.7 ng/mL
- AUC(0-t) [1, 6]: 81.8 ng·h/mL
- Tmax ([1]; plasma, oral, Steady-State (Day 87), 1 mg NA/10 mcg EE tablets, Mean (SD), read-out: Tmax): 1.8 h
- half-life [1, 6]: 13.3 h
- increase of extent of absorption with food ([2]; NA/EE tablets with food): 27%
- bioavailability ([2]; in vivo): ~64%
- dose proportionality of mean steady-state concentrations ([3]; 1 mg NA/5 mcg EE and 1/10 compared to 0.5 mg NA/2.5 mcg EE tablets): slightly more than proportional to dose
- average steady-state concentrations (Css) [3]: 2.6 ng/mL
- Vd [4]: 2 to 4 L/kg
- fraction unbound (Plasma protein binding): < 0.05
Compound: C#C[C@]1(O)CC[C@H]2[C@@H]3CCC4=CC(=O)CC[C@@H]4[C@H]3CC[C@@]21C [Norethindrone, norethindrone]

— patent publication US20020197286A1, “Method for preventing and treating skin aging” (priority 2001, published 2002)
